Tests used:
[1] = test system: high fructose diet fed Sprague Dawley rats; test: Rat High Fructose Model with Fast/Re-Feed; type: in vivo
Protocol: Another standard model of human hyperlipidemia and insulin resistance is the rat fed a high fructose diet for several weeks (33). Additionally, since hepatic lipid synthesis is known to be regulated by food consumption, the fast/reefed cycle of Horton et al. (32) was incorporated into the chronic high fructose diet model. A compound disclosed above was evaluated in this model as an agent to restore insulin sensitivity and lower blood lipids.
Eight week old male Sprague Dawley rats were purchased from Harlan, Inc. The rats weighed 200-225 g upon arrival and were divided into groups as detailed in Table 2 and were immediately placed on a high fructose diet (60% kcal fructose; Open Source Diet #D00111301) ad libitum for three weeks. During the last week of feeding the high fructose diet, the rats were dosed with vehicle (5% solutol, 8% β cyclo-dextrin), subject compound at 30 mg/kg or 100 mg/kg or the control compound at 30 mg/kg by oral gavage once daily for 7 days. On the final day, all animals were placed on a […] followed by a 12 hour re-feed period on the high fructose diet ad libitum. Body weights were monitored throughout the protocol. After completing the fast or fast/re-feed conditions, the rats were given avertin for anesthesia by intraperitoneal administration. Whole blood was collected by cardiac puncture and the rats were terminated by cervical dislocation. Livers were collected surgically, weighed and immediately frozen in liquid nitrogen. The blood was placed in Li-heparin treated tubes, centrifuged to collect plasma and the plasma frozen.
The plasma was analyzed by standard colorimetric assays for glucose, insulin, triglycerides and cholesterol.

[2] = test system: high fat diet fed C57Bl6 mice; test: Mouse High Fat Dietary Model with fast/re-feed; type: in vivo; details: for reduced body weight vs Vehicle: fast/re-feed
Protocol: A standard model of human hyperlipidemia and insulin resistance is the mouse fed a high fat diet for several weeks (31, 33). Additionally, since hepatic lipid synthesis is known to be regulated by food consumption, the fast/re-feed cycle of Horton et al. (32) was incorporated into the chronic high fat diet model. The compound was evaluated in this model as an agent to restore insulin sensitivity and lower blood lipids. The chronic high fat diet was fed to mice to simulate a standard Western diet which is elevated in calories from high fat and carbohydrate intake. This and similar models of dietary induced obesity, insulin insensitivity and elevated serum lipids and cholesterol are used as mouse and rat models of human pathology including hyperlipidemia, type II diabetes, atherosclerosis, obesity, cardiovascular and liver disease. These models have been used as excellent predictors of efficacy in human clinical trials (PPAR and FXR agonists).
The farnesoid X receptor (FXR) is a ligand-activated transcription factor and a member of the nuclear receptor superfamily. […] While the mechanism of action of FXR agonists is clearly distinct from PASK inhibition, WAY-362450 has been used as a positive control compound producing physiologically beneficial changes in glucose and lipid metabolism resembling inhibition of PASK. Throughout these in vivo assays, WAY-362450 has been used as a control compound, and will be referred to as such.
Male C57Bl6 mice were obtained from Jackson Laboratories and had been fed a high fat diet (60% kcal fat) for eight weeks. The mice were fed an identical high fat diet (Research Diet D12492) upon arrival and during the study. All mice were treated with the subject compound at 30 or 100 mg/kg, control compound (WAY-362450) at 30 mg/kg or vehicle by oral gavage daily for three days. On the final day, 10 animals from each group began an 24 hour fast and then were sacrificed (fasted groups 1a,2a,3a,4a). Alternatively, 10 animals from each group underwent a 24 hour fast followed by a 12 hour re-feed period with the same high fat diet ad libitum and then were sacrificed (re-fed groups 1b,2b,3b,4b).
Body weights were monitored at the start and end of the protocol. After completing the fast or fast/re-feed conditions, the mice were given avertin for anesthesia by intraperitoneal administration. Whole blood was collected by cardiac puncture and the mice were terminated by cervical dislocation. Livers were collected surgically, weighed and immediately frozen in liquid nitrogen. The blood was placed in Li-heparin treated tubes, centrifuged to collect plasma and the plasma frozen.
The plasma was analyzed by standard colorimetric assays for glucose, insulin, triglycerides and cholesterol. Frozen liver samples were pulverized and extracted in ethanolic KOH and analyzed for liver triglycerides and cholesterol.

[3] = 30 mg/kg oral once daily for 7 days
[4] = fast and re-feed, 30 mg/kg for 7 days
[5] = 100 mg/kg oral once daily for 7 days
[6] = fast and re-feed, 100 mg/kg for 7 days

CC(C)OC(=O)C1=CN(C(=O)c2ccc(F)c(F)c2)CC(C)(C)c2c1[nH]c1ccccc21 [control compound, WAY-362450, reference compound]
body weight relative to the Vehicle group (FIG. 1) [1, 3]: significant increase in body weight | increase in liver weight [1, 3]: about 2 g | increased liver weights [1, 3]: about 15% | effect on plasma glucose concentrations [1, 4]: did not alter plasma glucose concentrations | effects on liver weight ([2]; 30 mg/kg oral daily for three days): identical to those of the subject compound at the same dose

CC(C)N(C)c1nc2cc(C(=O)O)ccc2nc1-c1ccc(F)cc1 [subject compound]
body weight relative to the Vehicle group (FIG. 1) [1, 3]: modest increase in body weight | body weight relative to the Vehicle group (FIG. 1) [1, 5]: modest decrease in body weight | maximal reduction in liver weight [1, 5]: about 4% | decrease in plasma glucose vs vehicle [1, 4]: 21.5% | insulin levels reduced vs vehicle [1, 4]: 15.4% | plasma cholesterol decreased vs vehicle [1, 4]: 5.7% | decrease in plasma glucose vs vehicle [1, 6]: 26.3% | insulin levels reduced vs vehicle [1, 6]: 31.4% | plasma cholesterol decreased vs vehicle [1, 6]: 10% | reductions in liver weights ([2]; 30 and 100 mg/kg oral daily for three days): 7-9% | decreased plasma glucose vs vehicle ([2]; fast and re-feed, 100 mg/kg (highest dose)): up to 21% | reduced body weight vs Vehicle ([2]; 30 mg/kg oral gavage daily for three days): 2.7% | reduced body weight vs Vehicle ([2]; 100 mg/kg oral gavage daily for three days): 5.1% | decreased plasma insulin vs vehicle ([2]; fasted and re-fed, 30 mg/kg): 10% | decreased plasma insulin vs vehicle ([2]; fasted and re-fed, 100 mg/kg): 28% | decreased plasma glucose vs vehicle ([2]; fasted only, 30 mg/kg): 30% | decreased body weight vs Vehicle Fasted ([2]; fasted only, 30 mg/kg oral daily for three days): 1.8% | decreased plasma glucose vs vehicle ([2]; fasted only, 100 mg/kg): 43% | decreased body weight vs Vehicle Fasted ([2]; fasted only, 100 mg/kg oral daily for three days): 5.1% | decreased plasma insulin vs vehicle ([2]; fasted only, 30 and 100 mg/kg): up to 26%

From US11459307B2, “Heterocyclic compounds for the inhibition of PASK” (BioEnergenix LLC, priority 2009, dated 2022)
